Molecular target: SpGalNAc-T2 (Strongylocentrotus purpuratus, UniProt A0A7M7T5A5)
Assay: GalNAc transfer to peptide acceptors, radioactivity (dpm/3hr)
Assay type: biochemical
Conditions: acceptor peptides EA2, MUC5AC, MUC5AC-3, MUC5AC-13, MUC5AC-3/-13, SpDelta, SpNotch, 37°C, donor not given

Chain of SpGalNAc-T2 (A0A7M7T5A5 37-564): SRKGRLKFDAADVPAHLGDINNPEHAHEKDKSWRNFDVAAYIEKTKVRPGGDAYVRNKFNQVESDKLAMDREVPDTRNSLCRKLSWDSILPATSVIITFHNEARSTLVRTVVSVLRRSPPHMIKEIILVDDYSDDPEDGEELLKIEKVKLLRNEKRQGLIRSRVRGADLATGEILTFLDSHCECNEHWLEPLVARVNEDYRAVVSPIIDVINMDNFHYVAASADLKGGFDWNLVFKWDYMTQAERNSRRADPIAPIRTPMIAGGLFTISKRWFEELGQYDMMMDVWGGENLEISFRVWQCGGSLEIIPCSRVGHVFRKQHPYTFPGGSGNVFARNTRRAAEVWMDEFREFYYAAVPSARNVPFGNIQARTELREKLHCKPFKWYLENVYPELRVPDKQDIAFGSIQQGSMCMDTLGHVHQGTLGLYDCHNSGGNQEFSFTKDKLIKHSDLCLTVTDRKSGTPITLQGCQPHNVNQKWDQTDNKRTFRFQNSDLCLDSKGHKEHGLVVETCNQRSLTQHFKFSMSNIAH

`CC(=O)N[C@H]1[C@@H](OP(=O)(O)OP(=O)(O)OC[C@H]2O[C@@H](n3ccc(=O)[nH]c3=O)[C@H](O)[C@@H]2O)O[C@H](CO)[C@H](O)[C@@H]1O` [UDP-GalNAc] was tested, and the “GalNAc transfer to peptide acceptors, radioactivity (dpm/3hr)” value was “GalNAc-T activity was observed for SpGalNAc-T1, SpGalNAc-T2, SpGalNAc-T7, SpGalNAc-T7-1, and SpGalNAc-T7-2”.

Reference: PMC5407767, “Characterization and expression analysis of Galnts in developing Strongylocentrotus purpuratus embryos” (PLoS ONE, 2017)
